Assay results taken from publication PMC8303674, “Discovery of a Novel Triazolopyridine Derivative as a Tankyrase Inhibitor” (International Journal of Molecular Sciences, 2021).

Legend:
TNKS1 (tankyrase) = target: T1, TNKS1 (tankyrase) (Homo sapiens, UniProt O95271); experiment: cell-free colorimetric TNKS1 activity assay (BPS Bioscience); assay type: biochemical
T1 construct: gene TNKS
Source text: cell-free colorimetric TNKS1 activity assay (BPS Bioscience) on TNKS1 (tankyrase) | IC50 (μM) of TI-12403 against TNKS1 and TNKS2.

TNKS2 (tankyrase 2) = target: T2, TNKS2 (tankyrase 2) (Homo sapiens, UniProt Q9H2K2); experiment: cell-free colorimetric TNKS2 activity assay (BPS Bioscience); assay type: biochemical
T2 sequence (Q9H2K2 1-1166): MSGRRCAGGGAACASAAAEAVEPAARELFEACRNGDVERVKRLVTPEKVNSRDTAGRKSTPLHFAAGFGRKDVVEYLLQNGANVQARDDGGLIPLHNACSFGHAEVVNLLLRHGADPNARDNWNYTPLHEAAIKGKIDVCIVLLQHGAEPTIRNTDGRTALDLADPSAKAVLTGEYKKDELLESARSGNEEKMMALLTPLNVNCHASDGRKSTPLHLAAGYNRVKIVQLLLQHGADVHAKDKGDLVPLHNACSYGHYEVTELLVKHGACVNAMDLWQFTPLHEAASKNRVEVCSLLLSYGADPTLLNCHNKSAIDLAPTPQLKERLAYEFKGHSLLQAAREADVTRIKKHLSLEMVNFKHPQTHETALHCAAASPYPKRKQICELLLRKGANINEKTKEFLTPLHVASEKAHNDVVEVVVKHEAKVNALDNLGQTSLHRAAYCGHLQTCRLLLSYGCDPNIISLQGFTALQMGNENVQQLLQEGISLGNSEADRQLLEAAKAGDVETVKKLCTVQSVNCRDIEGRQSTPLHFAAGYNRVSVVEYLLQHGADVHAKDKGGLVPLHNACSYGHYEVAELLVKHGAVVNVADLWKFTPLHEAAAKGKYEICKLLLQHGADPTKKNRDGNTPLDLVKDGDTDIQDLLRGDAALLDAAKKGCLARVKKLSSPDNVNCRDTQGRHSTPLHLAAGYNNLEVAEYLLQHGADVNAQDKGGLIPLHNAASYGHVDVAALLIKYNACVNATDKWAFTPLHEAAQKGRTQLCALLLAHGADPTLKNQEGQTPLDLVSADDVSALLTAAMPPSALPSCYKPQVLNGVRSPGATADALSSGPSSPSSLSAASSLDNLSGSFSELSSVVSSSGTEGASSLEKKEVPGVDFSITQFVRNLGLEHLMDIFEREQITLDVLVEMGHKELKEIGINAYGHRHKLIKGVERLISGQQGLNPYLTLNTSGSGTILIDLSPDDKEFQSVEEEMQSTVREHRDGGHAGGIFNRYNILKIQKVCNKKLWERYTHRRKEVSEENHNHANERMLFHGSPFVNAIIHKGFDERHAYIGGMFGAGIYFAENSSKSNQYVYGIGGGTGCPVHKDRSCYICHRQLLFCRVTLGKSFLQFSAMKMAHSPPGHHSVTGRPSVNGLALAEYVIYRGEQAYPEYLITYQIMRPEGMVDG
Source text: cell-free colorimetric TNKS2 activity assay (BPS Bioscience) on TNKS2 (tankyrase 2) | IC50 (μM) of TI-12403 against TNKS1 and TNKS2.

T1 sequence (O95271 whole entry): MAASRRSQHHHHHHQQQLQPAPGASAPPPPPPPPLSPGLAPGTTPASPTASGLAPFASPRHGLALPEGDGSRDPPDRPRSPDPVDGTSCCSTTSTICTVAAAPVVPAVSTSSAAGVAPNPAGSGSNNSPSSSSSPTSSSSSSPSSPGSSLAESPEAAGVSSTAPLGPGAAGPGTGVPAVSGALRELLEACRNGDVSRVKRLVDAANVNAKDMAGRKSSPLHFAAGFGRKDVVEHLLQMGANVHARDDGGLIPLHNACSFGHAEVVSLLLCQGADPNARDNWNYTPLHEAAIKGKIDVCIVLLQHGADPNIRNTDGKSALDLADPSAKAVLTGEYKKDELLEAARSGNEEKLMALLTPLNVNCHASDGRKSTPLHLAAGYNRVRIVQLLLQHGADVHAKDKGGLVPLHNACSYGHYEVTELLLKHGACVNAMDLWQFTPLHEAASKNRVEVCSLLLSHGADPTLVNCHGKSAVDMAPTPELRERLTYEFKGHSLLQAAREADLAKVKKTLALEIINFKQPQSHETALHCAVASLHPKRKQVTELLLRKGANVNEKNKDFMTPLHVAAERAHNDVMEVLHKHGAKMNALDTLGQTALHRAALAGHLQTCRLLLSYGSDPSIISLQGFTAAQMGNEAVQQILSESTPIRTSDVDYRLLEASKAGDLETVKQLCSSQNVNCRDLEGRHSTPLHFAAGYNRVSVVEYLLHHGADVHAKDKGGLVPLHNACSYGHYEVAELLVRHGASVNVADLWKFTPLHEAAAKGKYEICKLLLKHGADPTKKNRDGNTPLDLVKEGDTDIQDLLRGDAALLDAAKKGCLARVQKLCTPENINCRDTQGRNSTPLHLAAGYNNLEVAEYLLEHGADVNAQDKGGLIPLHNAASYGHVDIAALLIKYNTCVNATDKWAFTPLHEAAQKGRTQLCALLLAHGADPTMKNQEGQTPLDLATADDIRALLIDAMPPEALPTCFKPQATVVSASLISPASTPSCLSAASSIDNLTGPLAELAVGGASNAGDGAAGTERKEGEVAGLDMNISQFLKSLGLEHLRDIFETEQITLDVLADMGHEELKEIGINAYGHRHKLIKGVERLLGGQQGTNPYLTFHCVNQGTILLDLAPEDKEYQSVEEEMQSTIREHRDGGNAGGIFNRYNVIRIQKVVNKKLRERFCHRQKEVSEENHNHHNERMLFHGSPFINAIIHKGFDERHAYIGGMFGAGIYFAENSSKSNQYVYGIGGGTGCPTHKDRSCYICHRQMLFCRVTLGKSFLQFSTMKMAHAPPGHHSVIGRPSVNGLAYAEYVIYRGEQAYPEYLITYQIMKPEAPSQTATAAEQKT

`N#Cc1ccccc1N1CCC(C(=O)Nc2nnc3ccccn23)CC1` [TI-12403, N-([1,2,4]triazolo[4,3-a]pyridin-3-yl)-1-(2-cyanophenyl)piperidine-4-carboxamide] was tested. Which IC50 (TNKS1 (tankyrase)) did it give?
Its IC50 is 29 nM.

What about the IC50 (TNKS2 (tankyrase 2)) of the same compound?
The IC50 was 60 nM.
